Results reported in publication PMC9963438, “Emerging Effects of Resveratrol Derivatives in Cells Involved in Oral Wound Healing: A Preliminary Study” (International Journal of Molecular Sciences, 2023).

Tests used:
HUVECs [1] = test: MTT viability/proliferation on HUVECs; type: cell-based, human
Procedure: To measure HUVECs, HGFs, and HOBs metabolic activity as an indicator of cell viability and proliferation, an MTT assay (Sigma Aldrich, Milan, Italy) was performed. In brief, 8000 cells/well (HUVECs, HGFs and HOBs) were seeded in 96-well plates and after 24 h cells were treated with increasing concentrations of 1d and 1h for 48 h and 72 h. Then, the medium was replaced by a fresh one supplemented with […] MTT and probed for 4 h at 37 °C. The medium containing MTT was discarded and replaced by an equal volume of DMSO to dissolve formazan crystals. The absorbance of the solution was read at a 540 nm wavelength by a microplate reader (Multiskan GO, Thermo Scientific, MA, USA). Values obtained without cells were considered as background. Viability and proliferation were normalized to control cells treated with DMSO 0.1%.

Water solubility = type: physicochemical; conditions: deionized water, 25 °C
Procedure: An excess of compounds 1d and 1h was placed in 1 mL of deionized water and the suspension was shaken at 25 °C for 15 min to ensure the solubility equilibrium. Next, the supernatant was filtered (Millipore 0.45 µm, Burlington, Massachusetts, USA) and analyzed by HPLC [49].

FN1 mRNA in HGFs = test: RT-qPCR of FN1 in HGFs; type: cell-based, human; conditions: 5, 10, 20 µM, 48 and 72 h, compared to RSV-treated cells and CTRL
Procedure: (§1) Total RNA was isolated using Trifast reagent (EuroClone) according to the manufacturer instructions from 3 × 10^5 cells/well treated with increasing concentrations of 1d and 1h for 48 h and 72 h. Complementary DNA (cDNA) was obtained using GoTaq® 2 Step RT-qPCR Kit (Promega, Madison, WI, USA) in accordance with the manufacturer’s instructions. RT-qPCR was carried out using SYBR Green (Promega) on the Quant Studio 7 Pro Real-Time PCR System (ThermoFisher, Waltham, MA, USA). The results were normalized to glyceraldehyde 3-phoshate dehydrogenase (GAPDH) for HUVECs and HGFs and to β-actin (βACT) for HOBs using the 2^−ΔΔCt method.

OCN mRNA in HOBs = test: RT-qPCR of OCN in HOBs; type: cell-based, human
Procedure: as §1

HUVECs [2] = test: LDH release assay on HUVECs; type: cell-based, human; conditions: 24 h
Procedure: (§2) Lactate Dehydrogenase (LDH) activity in HUVECs, HGFs, and HOBs was measured with a cytotoxicity detection kit LDH (Roche, Basilea, Swiss). Firstly, 5000 cells/well (HUVECs, HGFs and HOBs) were seeded in 96-well plates and treated with 1d and 1h (5, 10, 20 µM). After 24 h, the assay was performed according to manufacturer instructions. LDH release was calculated as a percentage with respect to the control (CTRL).

[3] = Kinetics in human plasma (enzymatic hydrolysis); type: in vitro ADME; conditions: 37 °C; for Enzymatic hydrolysis t ½ / Enzymatic hydrolysis Kobs: Human plasma; for Enzymatic hydrolysis Kobs: mean of three experiments (SD); for half-life at 40 µg/mL: human, human plasma (80%) diluted with phosphate buffer, pH 7.4, Human plasma, read-out: Enzymatic hydrolysis t ½
Procedure: Human plasma was obtained from 3H Biomedical (Uppsala, Sweden, Europe). Plasma fractions (2 mL) were diluted with […] of a 0.02 M phosphate buffer (PBS, pH 7.4) to obtain a final volume of 2.5 mL (80% of plasma). A total of 100 µL of a stock solution, prepared to dissolve 1 mg of each compound in 1 mL of ACN, was added. Studies were performed at 37 ± 0.5 °C using a shaking bath. Aliquots (100 µL) were taken at established time points and treated with 400 µL of 0.01 M HCl in methanol. After centrifugation for 15 min at 6000× g, the supernatant was filtered and analyzed by HPLC [51].

HOBs = test: LDH release assay on HOBs; type: cell-based, human; conditions: 24 h
Procedure: as §2

[4] = LogP determination (n-octanol/phosphate buffer pH 7.4); type: physicochemical; conditions: n-octanol/aqueous phosphate buffer, pH 7.4, n-octanol / phosphate buffer pH 7.4; mean of three experiments (SD)
Procedure: Both n-octanol and aqueous phosphate buffer (pH 7.4) solutions were saturated of each other by shaking. A total of 1 mL of n-octanol was added to an equal volume of an aqueous phosphate buffer (pH 7.4). A total of 5 mg of each compound was added and mixed by repeated inversion up to 200 times for 5 min and then allowed to stand for 30 min for the full separation of the two phases. Next, the respective phases were filtered and analyzed by HPLC [50] and the logarithm of the ratio of the concentrations of the unionized solute in the solvents (LogP) were determined.

[5] = 5 µM, 72 h, vs CTRL and RSV 10 µM
[6] = 10 µM, 48 h, vs CTRL and RSV 10 µM
[7] = 10 µM, 72 h, vs CTRL and RSV 10 µM
[8] = 20 µM, 72 h, vs CTRL and RSV 10 µM
[9] = 10 and 20 µM, differences not significant

SMILES | HUVECs viability (MTT) (HUVECs [1]; [5]) | HUVECs viability (MTT) (HUVECs [1]; [6]) | HUVECs viability (MTT) (HUVECs [1]; [7]) | HUVECs viability (MTT) (HUVECs [1]; [8]) | Water solubility (Water solubility) | FN1 mRNA level (FN1 mRNA in HGFs) | OCN mRNA expression (OCN mRNA in HOBs; 5 µM, 48 h) | OCN mRNA expression (OCN mRNA in HOBs; 10 and 20 µM, 48 h) | LDH release (HUVECs [2]; 5 µM) | LDH release (HUVECs [2]; [9]) | Enzymatic hydrolysis t ½ [3] [h] | Enzymatic hydrolysis Kobs [3] | half-life at 40 µg/mL [3] [min] | LDH release (HOBs; 5 µM) | LDH release (HOBs; [9]) | logP [4] | also measured
Cc1ccc(S(=O)(=O)Nc2ccc(/C=C/c3ccccc3)cc2)cc1 [1d, 4-Methyl-N-{4-[(E)-2-phenylvinyl]phenyl}benzenesulfonamide] | significantly promoted cell viability with respect to RSV | slightly increased for 10 µM only with respect to RSV | viability was not enhanced | viability was not enhanced | insoluble in water | no significant modifications | increased after 48 h exposure to all 1d concentrations with statistical significance just for 5 µM | increased | lowest LDH values | slightly increased the LDH | 49.5 | 0.014 (±0.005) h^−1 | > 2940 | lowest LDH values | slightly increased the LDH | < 3 | HUVECs viability (MTT) (HUVECs [1]; 5 µM, 48 h, vs CTRL (0.1% DMSO) and RSV 10 µM): slight increase in metabolic activity at 5 µM compared to the CTRL and a significant increase compared to RSV; OCN mRNA expression (OCN mRNA in HOBs; 5 µM, 72 h, compared to CTRL): highest significant peak; OCN mRNA expression (OCN mRNA in HOBs; 10, 20 µM, 72 h): slightly promoted the enhancement of OCN expression
CCS(=O)(=O)Nc1ccc(/C=C/c2ccccc2)cc1 [1h, N-{4-[(E)-2-Phenylvinyl]phenyl}ethanesulfonamide] | slightly favored cell growth with respect to RSV | viability was not induced | viability significantly decreased | viability significantly decreased | insoluble in water | no significant modifications | significantly stimulated OCN levels with respect to the CTRL | slightly promoted | lowest LDH values | slightly increased the LDH | 51.7 | 0.013 (±0.003) h^−1 | > 2940 | lowest LDH values | slightly increased the LDH | < 3 | HUVECs viability (MTT) (HUVECs [1]; 20 µM, 48 h, vs CTRL and RSV 10 µM): viability was not induced; OCN mRNA expression (OCN mRNA in HOBs; 72 h, in respect to CTRL, levels comparable to RSV): slightly increased OCN expression
